Test results taken from ChEMBL document CHEMBL1150313, “Novel bis-(arylsulfonamide) hydroxamate-based selective MMP inhibitors” (Bioorg Med Chem Lett, 2008).
Each block holds one compound with its values, some of them ahead of it. The source made the active and inactive calls. The calls are words filed in the database; no cut-off is given here.

Key:
[1] = target: T1, Matrilysin (Homo sapiens, UniProt P09237); experiment: (§1) Inhibition of human recombinant MMP7
T1 sequence (P09237 whole entry): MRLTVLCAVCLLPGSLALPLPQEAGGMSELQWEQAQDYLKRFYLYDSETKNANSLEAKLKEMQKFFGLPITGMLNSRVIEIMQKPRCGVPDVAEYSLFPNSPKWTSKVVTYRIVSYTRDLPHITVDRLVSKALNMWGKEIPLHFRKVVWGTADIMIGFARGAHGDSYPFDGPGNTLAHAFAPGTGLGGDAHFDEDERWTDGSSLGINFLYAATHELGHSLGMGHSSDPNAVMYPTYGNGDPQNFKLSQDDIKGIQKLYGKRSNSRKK

[2] = target: T2, Stromelysin-2 (Homo sapiens, UniProt P09238); experiment: Inhibition of human recombinant MMP10
[3] = target: T3, Matrix metalloproteinase-9 (Homo sapiens, UniProt P14780); experiment: Inhibition of human recombinant MMP9
T3 sequence (P14780 whole entry): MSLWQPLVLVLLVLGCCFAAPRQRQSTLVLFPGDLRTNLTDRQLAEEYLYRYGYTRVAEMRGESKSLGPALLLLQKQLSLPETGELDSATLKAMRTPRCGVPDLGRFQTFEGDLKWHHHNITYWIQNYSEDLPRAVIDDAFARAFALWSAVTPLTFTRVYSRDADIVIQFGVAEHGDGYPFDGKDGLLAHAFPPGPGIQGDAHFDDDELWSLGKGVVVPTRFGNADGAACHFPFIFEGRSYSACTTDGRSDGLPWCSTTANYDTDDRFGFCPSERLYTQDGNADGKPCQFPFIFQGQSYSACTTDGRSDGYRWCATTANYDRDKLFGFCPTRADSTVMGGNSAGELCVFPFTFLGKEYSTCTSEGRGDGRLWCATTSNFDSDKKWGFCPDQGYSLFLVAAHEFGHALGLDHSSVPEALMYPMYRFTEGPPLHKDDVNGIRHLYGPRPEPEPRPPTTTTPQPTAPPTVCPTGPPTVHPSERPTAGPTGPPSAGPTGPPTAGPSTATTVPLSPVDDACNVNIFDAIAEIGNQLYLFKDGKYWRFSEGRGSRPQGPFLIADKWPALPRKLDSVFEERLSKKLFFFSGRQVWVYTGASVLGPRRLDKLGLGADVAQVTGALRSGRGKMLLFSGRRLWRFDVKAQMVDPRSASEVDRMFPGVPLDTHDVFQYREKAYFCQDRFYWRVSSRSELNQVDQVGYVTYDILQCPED

[4] = target: T4, Matrilysin (Homo sapiens) (UniProt P09237); experiment: as §1
T4 sequence (whole entry): T1 sequence (P09237 whole entry)

[5] = target: T2, Stromelysin-2; experiment: Inhibition of human recombinant MMP10 at 10 uM
Target sequence in this assay (P09238 99-476 limits assumed): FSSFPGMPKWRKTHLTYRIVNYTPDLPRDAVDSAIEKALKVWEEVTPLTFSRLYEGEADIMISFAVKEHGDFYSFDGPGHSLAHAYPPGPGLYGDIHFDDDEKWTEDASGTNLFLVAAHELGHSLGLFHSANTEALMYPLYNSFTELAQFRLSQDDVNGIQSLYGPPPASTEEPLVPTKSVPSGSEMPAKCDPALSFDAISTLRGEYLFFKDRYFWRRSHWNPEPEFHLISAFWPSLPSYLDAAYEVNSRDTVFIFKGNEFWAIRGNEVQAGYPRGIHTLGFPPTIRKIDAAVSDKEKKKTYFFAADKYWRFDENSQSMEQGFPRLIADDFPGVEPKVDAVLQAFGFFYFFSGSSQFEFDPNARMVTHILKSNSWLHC

[6] = target: T4, Matrilysin (Homo sapiens); experiment: Inhibition of human recombinant MMP7 at 10 uM
[7] = target: T3, Matrix metalloproteinase-9; experiment: Inhibition of human recombinant MMP9 at 10 uM

Compound: O=C(NO)C(CNS(=O)(=O)c1ccccc1)NS(=O)(=O)c1ccccc1 (configuration not stated)
- Ki [1]: 2.8 µM
- Ki [2]: 0.356 µM
- Ki [3]: 0.227 µM

Compound: COc1ccc(S(=O)(=O)NCCC[C@H](NS(=O)(=O)c2ccc(OC)cc2)C(=O)NO)cc1
- Activity [4]: inactive
- Activity [2]: 16 µM
- Ki [3]: 4.2 µM

Compound: O=C(NO)[C@H](CCCCNS(=O)(=O)c1ccc(Br)cc1)NS(=O)(=O)c1ccc(Br)cc1
- inhibition [5]: 34.5%
- Ki [1]: 2.2 µM
- Activity [3]: inactive

Compound: O=C(NO)[C@H](CCCNS(=O)(=O)c1ccc(Br)cc1)NS(=O)(=O)c1ccc(Br)cc1
- inhibition [7]: 9.3%
- inhibition [5]: 16.4%
- inhibition [6]: 32%

Compound: O=C(NO)[C@H](CCCNS(=O)(=O)c1ccccc1)NS(=O)(=O)c1ccccc1
- Ki [1]: 3 µM
- Activity [2]: inactive
- Activity [3]: inactive

Compound: O=C(NO)[C@H](CCCCNS(=O)(=O)c1ccc(C(F)(F)F)cc1)NS(=O)(=O)c1ccc(C(F)(F)F)cc1
- inhibition [5]: 1.8%
- Activity [3]: inactive
- inhibition [6]: 24%

Compound: CN(C)c1cccc2c(S(=O)(=O)NCC(NS(=O)(=O)c3cccc4c(N(C)C)cccc34)C(=O)NO)cccc12 (configuration not stated)
- Ki [1]: 4.8 µM
- Ki [3]: 150 µM

Compound: O=C(NO)[C@H](CCCCNS(=O)(=O)c1ccc(I)cc1)NS(=O)(=O)c1ccc(I)cc1
- inhibition [5]: 30.9%
- Activity [3]: inactive
- inhibition [6]: 46%

Compound: O=C(NO)C(CNS(=O)(=O)c1c(F)c(F)c(F)c(F)c1F)NS(=O)(=O)c1c(F)c(F)c(F)c(F)c1F (configuration not stated)
- Ki [1]: 8.6 µM
- Activity [2]: inactive
- Ki [3]: 212 µM

Compound: O=C(NO)[C@H](CCCCNS(=O)(=O)c1ccccc1)NS(=O)(=O)c1ccccc1
- inhibition [7]: 7.5%
- inhibition [5]: 34.5%
- inhibition [6]: 44%

Compound: O=C(NO)C(CNS(=O)(=O)c1ccccc1C(F)(F)F)NS(=O)(=O)c1ccccc1C(F)(F)F (configuration not stated)
- Ki [1]: 6 µM
- Activity [2]: inactive
- Activity [3]: inactive

Compound: O=C(NO)[C@H](CCCNS(=O)(=O)c1ccc(C(F)(F)F)cc1)NS(=O)(=O)c1ccc(C(F)(F)F)cc1
- Ki [1]: 7 µM
- Ki [2]: 337 µM
- Ki [3]: 329 µM

Compound: O=C(NO)C(CNS(=O)(=O)c1cccc(C(F)(F)F)c1)NS(=O)(=O)c1cccc(C(F)(F)F)c1 (configuration not stated)
- Ki [1]: 0.602 µM
- Activity [2]: inactive
- Activity [3]: inactive

Compound: COc1ccc(S(=O)(=O)NCC(NS(=O)(=O)c2ccc(OC)cc2OC)C(=O)NO)c(OC)c1 (configuration not stated)
- Ki [1]: 0.289 µM
- Ki [2]: 372 µM
- Ki [3]: 124 µM

Other lines, results leading:

- Ki [1]: 1.8 µM
- Ki [2]: 1.6 µM
- Ki [3]: 0.0026 µM
Compound: O=C(NO)C(CNS(=O)(=O)c1ccc(I)cc1)NS(=O)(=O)c1ccc(I)cc1 (configuration not stated)

- inhibition [5]: 27.4%
- Ki [1]: 3.1 µM
- Activity [3]: inactive
Compound: O=C(NO)[C@H](CCCCNS(=O)(=O)c1ccc(F)cc1)NS(=O)(=O)c1ccc(F)cc1

- inhibition [5]: 20%
- Activity [3]: inactive
- inhibition [6]: 17%
Compound: O=C(NO)[C@H](CCCNS(=O)(=O)c1ccc(F)cc1)NS(=O)(=O)c1ccc(F)cc1

- Ki [1]: 10 µM
- Ki [2]: 23 µM
- Ki [3]: 7.9 µM
Compound: O=C(NO)C(CNS(=O)(=O)c1ccc(C(F)(F)F)cc1)NS(=O)(=O)c1ccc(C(F)(F)F)cc1 (configuration not stated)

- Ki [1]: 5 µM
- Activity [2]: inactive
- Ki [3]: 221 µM
Compound: O=C(NO)[C@H](CCCNS(=O)(=O)c1ccc(I)cc1)NS(=O)(=O)c1ccc(I)cc1

- Ki [1]: 0.237 µM
- Ki [3]: 0.23 µM
Compound: O=C(NO)C(CNS(=O)(=O)c1ccc(Cl)cc1)NS(=O)(=O)c1ccc(Cl)cc1 (configuration not stated)

- Ki [1]: 0.625 µM
- Ki [2]: 4.57 µM
- Ki [3]: 2.75 µM
Compound: O=C(NO)C(CNS(=O)(=O)c1ccc(F)cc1)NS(=O)(=O)c1ccc(F)cc1 (configuration not stated)

- Ki [1]: 5.5 µM
- Ki [3]: 0.15 µM
Compound: O=C(NO)C(CNS(=O)(=O)c1ccc(Br)cc1)NS(=O)(=O)c1ccc(Br)cc1 (configuration not stated)

- Ki [1]: 6.6 µM
- Ki [2]: 22 µM
- Ki [3]: 1.7 µM
Compound: O=C(NO)C(CNS(=O)(=O)c1ccc([N+](=O)[O-])cc1)NS(=O)(=O)c1ccc([N+](=O)[O-])cc1 (configuration not stated)

- Ki [1]: 0.605 µM
- Ki [2]: 0.335 µM
- Ki [3]: 0.039 µM
Compound: COc1ccc(S(=O)(=O)NCC(NS(=O)(=O)c2ccc(OC)cc2)C(=O)NO)cc1 (configuration not stated)

- inhibition [5]: 34.5%
- Activity [3]: inactive
- inhibition [6]: 31%
Compound: O=C(NO)[C@H](CCCNS(=O)(=O)c1ccc(Cl)cc1)NS(=O)(=O)c1ccc(Cl)cc1
